The text below walks through data of patent publication US11530265B2, “Multipartite signaling proteins and uses thereof” (2seventy bio, Inc., priority 2013, dated 2022).

Like-named read-outs stand apart in the source and are kept apart here.

The test system of one series is K562-CD19 cells. The conditions noted are these: for cytotoxicity responses on titration of bridging factor: DARIC expressing T cells, broad range of drug concentrations. Here is the method:
The transduced T cells were then co-incubated with about a 50:50 mixture of the K562 target cells expressing either CD19 (K562-CD19) or CD20 (K562-CD20) to evaluate antigen-specific cytotoxicity. […] The DARIC antigen binding component includes a CD19 antigen binding scFv domain and a FKBP12 multimerization domain, which was linked to a mCherry fluorescent protein.
A series of additional DARIC molecules, in which the antigen binding component was maintained on the T cell surface rather than released into the extracellular space, were tested (see, e.g., FIG. 1I). Several protein regions and transmembrane domains were used to anchor the binding domain to the T cell surface (SEQ ID NOS.:50, 53, 56, 59), each altering the spacing or steric parameters governing multimerization of the DARIC binding and signaling components.
Deactivation of the DARIC system by the addition of a pharmacological agent that competes for binding to one of the multimerization domains was tested. Primary human T cells expressing either a traditional CD19 targeting CAR or primary human T cells expressing the CD19 targeting DARIC components (SEQ ID NO.:66) were co-incubated with 50:50 mixtures of K562-CD19 and K562-CD20 cells.

Series [1] deals with CD19 expressing K562 target cells. As to the kind of experiment: Cytokine secretion of T cells encoding DARIC components co-incubated with K562 target cells (Cytokine Bead Array). The class given is cell-based, human. As to the method:
Recombinant T cells expressing the two DARIC components were incubated with K562 target cells (a human myeloid leukemia cell line), which were modified to express either CD19 or CD20 antigen, to examine cytokine expression. […] Supernatants were isolated for analysis of cytokine production (see FIG. 4).
Two samples of primary human T cells were isolated, expanded, and then prepared by electroporation with IVT-mRNA encoding either (i) the validated single-chain CAR (CD19-CAR, SEQ ID NO.:[…], positive control); or (ii) both DARIC binding and signaling components (DSC, SEQ ID NO.:16 plus DBC-CD19, SEQ ID NO.:2). […] The supernatants were then collected and assayed for analyte concentrations using cytokine capture antibody-labeled beads (Becton Dickenson Cytokine Bead Array, human Th1/Th2 kit). Comparison with recombinant protein standards enabled calculation of absolute concentrations of each of the six cytokines encompassed by the bead array.

The subject of another series is K562-CD19 target cells. As to the kind of experiment: Cytotoxicity of IVT-mRNA electroporated T cells encoding DARIC components against K562-CD19/K562-CD20 mixture (flow cytometry). The class given is cell-based, human. As to the method:
Recombinant T cells expressing the two DARIC components were incubated with K562 target cells (a human myeloid leukemia cell line), which were modified to express either CD19 or CD20 antigen, to examine target cell lysis. Briefly, T cells were co-incubated with a 50:50 mixture of K562-CD19 and K562-CD20 target cell lines, at 3:1 or 10:1 T cell to target cell ratios. […] The relative percentage of each of the target cell lines was monitored by flow cytometry staining for the CD19 and CD20 antigens to evaluate cell lysis (see FIG. 3).
Four samples of primary human T cells were prepared by electroporation with IVT-mRNA encoding (i) an extensively validated single-chain chimeric antigen receptor (CAR) (CD19-CAR, SEQ ID NO.:14, positive control); (ii) the DARIC signaling component only (DSC, SEQ ID NO.:16, negative control); iii) the DARIC binding component only (DBC-CD19, SEQ ID NO.:2, negative control); and (iv) both DARIC binding and signaling components (DSC, SEQ ID NO.:16 plus DBC-CD19, SEQ ID NO.:2). The relative percentages of each of the target cell lines were monitored by flow cytometry staining for the CD19 and CD20 antigens (FIG. 3A).
The percent specific cytotoxicity was calculated for each condition as the percentage change relative the input K562-CD19:K562-CD20 ratio.

For the next series, the system named is K562-CD123 target cells. The experiment in a line: Antigen-specific cytotoxicity of lentivirus-transduced T cells against 50:50 K562-CD19/K562-CD123. The class given is cell-based, human. Particulars: sample containing rapamycin; T:K562 5:1. An excerpt:
The DARIC system was extended to an additional model antigen to show the broad applicability of artificial cells expressing drug regulated multipartite receptors templated herein. K562 target cell lines were generated to express the CD123 antigen by sub-cloning this antigen into a lentiviral vector comprising a puromycin selection cassette (SEQ ID NO.:74), lentiviral particles were produced, and K562 cells were infected and selected with puromycin.

The mark [2] stands for this setting: T cells expressing DARIC components (DSC plus DBC-CD19), 500 nM AP21967, 1:1.

Turning to `CO[C@H]1C[C@@H]2CC[C@@H](C)[C@@](O)(O2)C(=O)C(=O)N2CCCC[C@H]2C(=O)O[C@H]([C@H](C)C[C@@H]2CC[C@@H](O)[C@H](OC)C2)CC(=O)[C@H](C)/C=C(\C)[C@@H](O)[C@@H](OC)C(=O)[C@H](C)C[C@H](C)/C=C/C=C/C=C/1C` [rapamycin], the “cytotoxicity responses on titration of bridging factor” value in the series on K562-CD19 cells (T:K562 5:1) is on record as “maintained to sub-nanomolar drug concentrations”. For the same compound, the cytotoxicity response result with K562-CD19 cells (mixed T cell populations, one expressing DARIC antigen binding component, the other DARIC signaling component) was “cytotoxicity response against K562-CD19 cells”. Moreover, the antigen specific cytotoxicity result in the series with K562-CD19 cells (swapped DARIC: binding component DmrC, signaling component DmrA (SEQ ID NOs.:12, 31), samples containing rapamycin) is listed as “Antigen specific cytotoxicity was observed”.

Turning to `CO[C@H]1[C@@H](O)[C@H](C)C[C@H](C)/C=C/C=C/C=C(\C)[C@@H](c2c[nH]c3c(C)cccc23)C[C@@H]2CC[C@@H](C)[C@@](O)(O2)C(=O)C(=O)N2CCCC[C@H]2C(=O)O[C@H]([C@H](C)C[C@@H]2CC[C@@H](O)[C@H](OC)C2)C[C@H](O)[C@H](C)/C=C(\C)[C@H]1O` [AP21967, C-16-(S)-7-methylindolerapamycin], in series [1] (setting [2]), the IFNγ production result is reported as “equivalent, or superior, to the single chain CD19-CAR positive control” and the IL-2 production entry is given as “equivalent, or superior, to the single chain CD19-CAR positive control”. Also, the specific cytotoxicity entry in the series on K562-CD19 target cells (T cells expressing both DARIC components (DSC plus DBC-CD19), 500 nM AP21967) is “substantial specific cytoxicity”. In addition, in the series on K562-CD19 cells (T cells with DARIC signaling component FRB (2021-2113) T2098L, T:K562 5:1, rapamycin 10 nM or AP21967 100 nM), the “elimination of CD19 expressing K562 cells” value is recorded as “elimination of the CD19 expressing K562 cells”. Also, the “elimination of K562-CD19 cells” value in the series with K562-CD19 cells (T cells with DARIC signaling component FRB dimerization domain, T:K562 5:1, rapamycin 10 nM or AP21967 100 nM) is reported as “no effect on cell survival”.

With `C=CC[C@@H]1/C=C(\C)C[C@H](C)C[C@H](OC)[C@H]2O[C@@](O)(C(=O)C(=O)N3CCCC[C@H]3C(=O)O[C@H](/C(C)=C/[C@@H]3CC[C@@H](O)[C@H](OC)C3)[C@H](C)[C@@H](O)CC1=O)[C@H](C)C[C@@H]2OC` [FK506], the “change in antigen specific cytotoxicity on addition of anti-bridging factor” value is given as “minimal reduction” in the series with K562-CD19 cells (CD19 targeting CAR T cells) and “marked reduction” in the series with K562-CD19 cells (CD19 targeting DARIC T cells with rapamycin).

Take “both DARIC components: T cells expressing both DARIC binding and signaling components”: the cytokine production result in series [1] (T cells expressing DARIC components, absence of bridging factor AP21967) is reported as “no significant cytokine production”. In addition, in the series with K562-CD19 target cells (T cells expressing both DARIC components, without addition of AP21967), the specific cytotoxicity result is on record as “no significant cytotoxicity”.

As for “SS-FRB(T2098L)-TM-41BB-CD3z mRNA [DARIC signaling component]”, the specific cytotoxicity result in the series on K562-CD19 target cells (primary human T cells electroporated with IVT-mRNA, 50:50 K562-CD19/K562-CD20, 3:1 or 10:1 T cell to target cell ratio) is “no significant cytotoxicity”.

As to “SS-DmrC-CD8TM-41BB-CD3z-P2A-SS-CD123scFv-DmrA-CD4TM protein [CD123 DARIC]”, the cytotoxicity entry in the series with K562-CD123 target cells is “Cytotoxicity was observed”.

For `CO[C@H]1C[C@@H]2CC[C@@H](C)[C@@](O)(O2)C(=O)C(=O)N2CCCC[C@H]2C(=O)O[C@H]([C@H](C)C[C@@H]2CC[C@@H](OCCO)[C@H](OC)C2)CC(=O)[C@H](C)/C=C(\C)[C@@H](O)[C@@H](OC)C(=O)[C@H](C)C[C@H](C)/C=C/C=C/C=C/1C` [everolimus], the “cytotoxicity responses on titration of bridging factor” value with K562-CD19 cells (T:K562 5:1) is “maintained to sub-nanomolar drug concentrations”.
